Laboratory results from patent US9365511B2, “Biphenyl-ethyl-pyrrolidine derivatives as histamine H3 receptor modulators for the treatment of cognitive disorders” (Arena Pharmaceuticals, Inc., priority 2013, dated 2016).
Entries after “also recorded” stand apart in the source; their conditions may differ. Read-outs that look alike come from different tables or passages of the source.

What was measured:
human H3 receptor = human H3 receptor (Homo sapiens (Human), UniProt Q9Y5N1); experiment: Human H3 receptor HTRF cAMP assay; assay type: cell-based; settings: HEK293 cells expressing the human H3 receptor, forskolin 2 μM; read-out: IC50 H3R
human H3 receptor, sequence (Q9Y5N1 whole entry): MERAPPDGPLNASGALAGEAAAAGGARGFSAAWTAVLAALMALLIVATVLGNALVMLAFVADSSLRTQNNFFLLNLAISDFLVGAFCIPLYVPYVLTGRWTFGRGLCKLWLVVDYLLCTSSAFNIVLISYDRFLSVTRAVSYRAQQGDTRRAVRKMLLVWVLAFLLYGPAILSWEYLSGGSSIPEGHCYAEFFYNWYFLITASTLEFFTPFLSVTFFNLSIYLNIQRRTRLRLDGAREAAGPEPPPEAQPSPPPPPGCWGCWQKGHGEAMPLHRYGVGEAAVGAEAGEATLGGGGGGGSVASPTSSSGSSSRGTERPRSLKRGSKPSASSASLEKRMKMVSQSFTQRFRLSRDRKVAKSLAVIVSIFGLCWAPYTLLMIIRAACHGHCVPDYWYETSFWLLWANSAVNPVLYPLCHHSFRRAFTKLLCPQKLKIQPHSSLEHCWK
From the text: Homogeneous time-resolved fluorescence assays (HTRF®, Cisbio) detect levels of cAMP in lysed cell preparations using a europium or terbium cryptate-labeled anti-cAMP antibody and fluorophore-labeled cAMP (cAMP-d2). In the absence of exogenous cAMP, the anti-cAMP antibody binds to cAMP-d2. Photoexcitation of the cryptate donor results in a combination of cryptate emission at 620 nm and fluorescence resonance energy transfer (FRET) from the cryptate to the acceptor d2 fluorophore, which then fluoresces at 665 nm. The 620/665 nm emission ratio is monitored. In the presence of exogenous cAMP, which competes with cAMP-d2 for binding to the anti-cAMP antibody, FRET is decreased and the […], providing a sensitive and accurate means to measure cAMP levels in biological assays.
Compounds of the present invention were evaluated using the human H3 receptor (H3R) HTRF cAMP assay. In this assay, HEK293 cells expressing the human H3 receptor were suspended in PBS containing 100 μM IBMX and plated into 384-well assay plates (Perkin Elmer Proxiplate 384-Plus; 15,000 cells per well; 5 μL plating volume) and allowed to equilibrate for an hour. Test compounds were serially diluted in 100% DMSO and then further diluted in PBS containing forskolin (2 μM). Test compounds (5 μL) were then added to the assay plate and the mixture was incubated for 1 hour. HTRF assay reagents (Cisbio, Dynamic 2 cAMP Kit), cAMP-d2 and cryptate-labeled anti-cAMP antibody, are mixed with cell lysis buffer and added to the assay plate. After 1-hour incubation with these reagents, the assay plate was read on an HTRF-compatible microplate reader (Perkin Elmer EnVision or BMG Pherastar). A cAMP standard curve was included on each assay plate and HTRF emission ratios for test compounds were fit to this curve to generate accurate measures of cAMP levels in each test well.

[1] = system: histamine-induced scratching behavior in mice; experiment: Histamine-induced model for pruritus (Example 5); assay type: in vivo, C57BL/6 mice; settings: oral administration, histamine 3 μmol s.c. 30 min post-dosing, bouts counted 0-30 min, FIG. 5
Procedure: C57BL/6 mice (9 per group) were administered with either vehicle (0.5% Methocellulose) or Compound 3. Thirty minutes post-dosing, the mice were injected with histamine (3 μmol) subcutaneously and placed in a clear observation box. Mice were video recorded and the number of scratching bouts that occurred between 0 and 30 minutes was counted after histamine injection.

[2] = system: histamine-induced scratching behavior in mice; experiment: Histamine-induced model for pruritus (Example 6); assay type: in vivo, C57BL/6j male mice; settings: oral administration, histamine s.c. 30 min post-dosing, bouts counted 5-15 min, FIG. 6
Procedure: H3R inhibitors, Compound 3 and Compound 11, were dissolved in 0.5% methylcellulose at the appropriate concentration and 100 μL were administered orally to 8-week-old C57BL/6j male mice. Thirty minutes post-dosing, 25 μL of 40 mg/mL histamine solution was injected subcutaneously at the rostral part of the back. Mice were video recorded and the number of scratching bouts that occurred between 5 and 15 minutes was counted after histamine injection.

[3] = Brain to plasma ratio determination in male C57BL6 mouse; assay type: in vivo, Male C57BL6 mice
Procedure: Male C57BL6 mice were administered Compound 3 at 3 mg/kg by either intraperitoneal injection (IP) or oral gavage (PO). Plasma and brain samples were collected at 0.5 and 2.0 h post-dose. Blood samples were collected via eye bleed, followed by decapitation and extraction of the brain from the cranial cavity. Blood was treated with 0.5% EDTA; plasma was separated by centrifugation. Brain tissue was placed in ice-cold containers. Plasma and brain samples were frozen at approximately −70° C. until assayed at Arena Pharmaceuticals. Compound 3 plasma and brain concentrations were determined by LC/MS/MS. The lower limit of quantitation (i.e., LLQ) was 25.0 and 3.0 ng/mL for plasma and brain, respectively.

IC50 (human H3 receptor): 2.5 nM
concentration at 0.5 h ([3]; C57BL6, brain, 3 mg/kg PO, 0.5 h post-dose, read-out: brain concentration): 39.8 ± 22.7 ng/g
concentration at 2 h ([3]; C57BL6, brain, 3 mg/kg PO, 2.0 h post-dose, read-out: brain concentration): 29.1 ± 7 ng/g
concentration at 0.5 h ([3]; C57BL6, brain, intraperitoneal, 3 mg/kg IP, 0.5 h post-dose, read-out: brain concentration): 71.7 ± 10.7 ng/g
concentration at 2 h ([3]; C57BL6, brain, intraperitoneal, 3 mg/kg IP, 2.0 h post-dose, read-out: brain concentration): 17.2 ± 7.5 ng/g
Kp ([3]; C57BL6, brain/plasma, 3 mg/kg IP, independent of time): ~0.05
Kp at 0.5 h ([3]; C57BL6, brain/plasma, 3 mg/kg PO, 0.5 h post-dose): 0.04
Kp at 2 h ([3]; C57BL6, brain/plasma, 3 mg/kg PO, 2.0 h post-dose): 0.05
concentration at 0.5 h ([3]; C57BL6, plasma, 3 mg/kg PO, 0.5 h post-dose, read-out: plasma concentration): 1080 ± 487 ng/mL
concentration at 2 h ([3]; C57BL6, plasma, 3 mg/kg PO, 2.0 h post-dose, read-out: plasma concentration): 619 ± 185 ng/mL
concentration at 0.5 h ([3]; C57BL6, plasma, intraperitoneal, 3 mg/kg IP, 0.5 h post-dose, read-out: plasma concentration): 1350 ± 104 ng/mL
concentration at 2 h ([3]; C57BL6, plasma, intraperitoneal, 3 mg/kg IP, 2.0 h post-dose, read-out: plasma concentration): 364 ± 135 ng/mL
SMILES: C[C@@H]1CCCN1CCc1ccc(-c2ccc(CCC(=O)O)cc2)cc1 [Compound 3, (R)-3-(4′-(2-(2-Methylpyrrolidin-1-yl)ethyl)biphenyl-4-yl)propanoic Acid]
histamine-induced scratching behavior (number of scratching bouts) [1]: effectively inhibits histamine-induced pruritus; also recorded: inhibit histamine-induced scratching behavior
histamine-induced scratching behavior (number of scratching bouts) [2]: effectively inhibit histamine-induced pruritus; also recorded: inhibit histamine-induced scratching behavior
